Results as given in patent publication US20130219529A1, “PROBE FOR A HAIR CELL, AND LABELLING METHOD FOR A HAIR CELL USING THE PROBE FOR A HAIR CELL” (CANON KABUSHIKI KAISHA, priority 2008, published 2013).

Experiments:
[1] = Excitation and fluorescence emission wavelength measured with fluorescence spectrophotometer; format: physicochemical; conditions: aqueous solution, 10 mg/mL DMSO solution diluted 500-fold with purified water
[2] = tested on: hair cell (neuromast) of Zebrafish; assay: Staining of hair cell (neuromast) of Zebrafish juveniles with probe, fluorescence stereomicroscope image visually evaluated; format: in vivo; conditions: dye concentration 250 μg/mL, 1 hour, Zebrafish juveniles Day 7 after fertilization
[3] = tested on: hair cell (neuromast) of Zebrafish; assay: as above; format: in vivo; set-up: Fluorescence intensity: key to the marks not given beside the values; conditions: dye concentration 1 μg/mL, 1 hour, Zebrafish juveniles Day 7 after fertilization
Procedure: A staining compound (1) was dissolved in DMSO to prepare a stock solution at a concentration of 1 mg/mL. The stock solution was diluted with distilled water to prepare a hair cell staining solution 1 having a dye concentration of 1 μg/mL. Further, Egg Water was prepared by dissolving artificial seawater SEALIFE (manufactured by Marinetech Co., Ltd.) in distilled water at a concentration of 60 mg/L. Five juveniles (embryos on Day 7 after fertilization) of Zebrafish were placed into any one of wells of a 24-well multiwell plate together with feeding water. The feeding water was discharged and 1 mL of the hair cell staining solution 1 was added. After the whole had been left to stand for 1 hour, the hair cell staining solution 1 in the well was discharged and replaced by 1 mL of fresh Egg Water. In addition, such an operation that Egg Water was discharged and replaced by 1 mL of fresh Egg Water was repeated twice. One of the juveniles was taken out from the well onto a dish, the motion of the juvenile was restricted by addition of methylcellulose, and a fluorescence image was captured with a fluorescence stereomicroscope. MZ16FA manufactured by Leica Microsystems K.K. was used as a stereoscopic microscope.
An image pickup unit (a digital camera DP72 for a microscope manufactured by Olympus Corporation) of a fluorescence stereomicroscope was remodeled by removing an IR cut filter so as to capture a fluorescence image in a near-infrared wavelength region.

[4] = tested on: juvenile neuromast (hair cell) of Zebrafish; assay: Change in staining intensity of neuromast due to morpholino knockdown of target genes (SLC25A12, TRPC2); format: in vivo; conditions: for Increase of staining properties by knockdown of SLC25A12 and TRPC2 genes: each of SLC25A12 and TRPC2 knockdown; for Ratio of staining intensity (KD/control): juveniles Day 7
Procedure: In order to knockdown a specific gene, a mixed solution containing a morpholino antisense oligonucleotide (MO) was prepared. MO was synthesized by using GeneTools, LLC (Philomath, Oreg.). A morpholino antisense oligonucleotide (atgMO) designed so that the translation from a start codon to a protein would be inhibited was dissolved in distilled water to prepare a MO mixed solution having the following composition.
A fertilized embryo within 1 hour after fertilization (before a second cleavage period) of Zebrafish was microinjected with the MO mixed solution. A capillary made of glass (inner diameter: 0.6 mm) having a sharp extremity obtained by extending and cutting a glass tube with a PC-10 puller (manufactured by Narishige Co., Ltd.) and grinding the cross section with a EG-400 grinder (manufactured by Narishige Co., Ltd.) was used for the microinjection. Feeding water and the fertilized embryo were placed into a 10-cm dish in which 1% agarose had been bedded, and the microinjection was performed under a stereoscopic microscope. During injection, one of a manual injector IM-9A (manufactured by Narishige Co., Ltd.) and an electrical microinjector IM-30 (manufactured by Narishige Co., Ltd.) was connected to the capillary made of glass, to thereby perform infusion with pressure. The infusion amount of MO was set to 1 to 10 ng per fertilized embryo.
Because the MO mixed solution is supplemented with a dye (0.005% phenol red), the success or failure of the infusion of the MO mixed solution may be confirmed with the naked eye. Further, because the MO mixed solution is supplemented with a fluorescent protein expression vector (EGFP), on Day 3 after infusion, the success or failure of the microinjection can be confirmed after the fertilized embryo has hatched (a sample in which a signal derived from the fluorescent protein was observed also retains MO in Zebrafish).
Juveniles (embryos on Day 7 after fertilization) of Zebrafish were stained in the same manner as that in Example 1, and a change in staining condition of the hair cell was measured.
The compound (54) was selected as the probe for a hair cell and compared with FM1-43. Further, SLC25A12 and TRPC2 were selected as target genes. The staining intensity of a juvenile neuromast having unknockdown genes was used as a control, and compared with the staining intensity of a juvenile neuromast in which each of the target genes has been knockdown by representing a fluorescence image obtained with a stereoscopic microscope in numerical values.

[5] = tested on: neuromast (hair cell) of Zebrafish; assay: Staining intensity of neuromast at different concentrations of staining agent (fluorescence intensity per unit intake time); format: in vivo; conditions: 10, 30 and 100 ng/mL staining solutions, intensity/msec
Procedure: The compounds (43), (54), and (65) were selected as probes for a hair cell, and compared with FM1-43. Three kinds of staining solutions containing those staining agents were prepared at concentrations of 10 ng/mL, 30 ng/mL, and 100 ng/mL. Juveniles of (embryos on Day 7 after fertilization) of Zebrafish were stained in the same manner as that in Example 1. When a fluorescence image is acquired with a fluorescence stereomicroscope, the fluorescence intensity per unit intake time (intensity/msec) was calculated by changing an intake time (exposure time) and dividing the fluorescence intensity (Relative Fluorescence Unit, RFU) of a neuromast of the obtained fluorescence image by the intake time.

[6] = tested on: hair cell of Zebrafish; conditions: 5 μM chemical substance, 24 hours exposure, Zebrafish Day 7 after fertilization, stained with staining compound 54
Procedure: Zebrafish after exposure was washed with distilled water. The same operation as that in Example 1 was performed except that the staining compound (1) used in Example 1 was changed to a staining compound (54).

CC[n+]1ccccc1C=Cc1ccc(N(C)C)cc1.[I-] [DASPEI, 2-(4-(dimethylamino)styryl)-N-ethylpyridinium iodide, reference compound]
Excitation wavelength λex [1]: 461 nm | Fluorescence emission wavelength λem [1]: 589 nm | Fluorescence intensity [2]: +

CCCCN(CCCC)c1ccc(/C=C/c2cc[n+](CCC[N+](CC)(CC)CC)cc2)cc1.[Br-].[Br-] [FM1-43, reference compound]
Excitation wavelength λex [1]: 503 nm | Fluorescence emission wavelength λem [1]: 627 nm | Fluorescence intensity [3]: +++ | Increase of staining properties by knockdown of SLC25A12 and TRPC2 genes [4]: about 30% | Ratio of staining intensity (KD/control) ([4]; target gene SLC25A12 knockdown): 1.36 | Ratio of staining intensity (KD/control) ([4]; target gene TRPC2 knockdown): 1.35

CC1(C)C(/C=C/C=C/C=C/C=C2\N(CCCCS(=O)(=O)O)c3ccc4ccccc4c3C2(C)C)=[N+](CCCCS(=O)(=O)[O-])c2ccc3ccccc3c21 [ICG, indocyanine green, reference compound]
Excitation wavelength λex [1]: 784 nm | Fluorescence emission wavelength λem [1]: 811 nm | Fluorescence intensity [2]: No stained | Staining pattern [2]: No stained

CN1/C(=C\C=C\C2=[N+](C)c3ccccc3C2(C)C)C(C)(C)c2ccccc21 [Staining compound 43]
Staining intensity of the hair cell compared with FM1-43 (FIG. 4) [5]: higher

CC/N=c1\cc2oc3cc(NCC)c(C)cc3c(-c3ccccc3C(=O)OCC)c-2cc1C [Staining compound 54]
Increase of staining properties by knockdown of SLC25A12 and TRPC2 genes [4]: about 2 fold | Ratio of staining intensity (KD/control) ([4]; target gene SLC25A12 knockdown): 2.06 | Ratio of staining intensity (KD/control) ([4]; target gene TRPC2 knockdown): 2.18 | Staining intensity of the hair cell compared with FM1-43 (FIG. 4) [5]: higher

CCN1/C(=C\C=C\c2sc3ccccc3[n+]2CC)Sc2ccccc21 [Staining compound 65]
Staining intensity of the hair cell compared with FM1-43 (FIG. 4) [5]: higher

NCCS(=O)(=O)O [Taurine, taurine]
Change in staining intensity [6]: No change
